Here are results for 1 compound from US20150099003A1, “Topiramate Sustained-Release Pharmaceutical Composition, Method for Preparing Same, and Uses Thereof” (Institute of Pharmacology and Toxicology Academy of …, priority 2012, published 2015).

A short description of series [1]: Release rate in different dissolution media (artificial gastric fluid, water, artificial intestinal fluid). In kind it is physicochemical. The note with it: degradation reaction. On the procedure:
In order to verify whether acidic, basic solvent media would influence the release rate of the sustained-release pellets of the present invention, 0.1 mol/L HCl (pH1.2) was prepared as artificial gastric fluid, […] phosphate buffer (pH6.8) was prepared as artificial intestinal fluid, and these media and water (500 ml) were used as release media, rotation speed was 100 rpm, 37° C. Samples (5 ml, supplemented with equivalent volume of media at the meantime) were taken at 1, 2, 4, 8, 12, 16, 20, 24 h, filtrated, and the subsequent filtrates were used as test solutions. High performance liquid chromatography (Appendix V D of Part II of Chinese Pharmacopoeia, 2010 Edition) was used, octylsilane-bonded silica gel was used as packing agent, 50% methanol was mobile phase, differential refractive detector was used, flow rate was 1.5 ml per minute. 200 μl of test solution was taken, injected in liquid chromatograph, the peak area of topiramate as main drug was recorded; topiramate was separately taken as control sample and measured by the same method, and accumulative release percentages of drug at different time points were calculated by external standard method.

The conditions of series [2]: cited from earlier work.
For series [3] the following is noted: cited from earlier work. This is another data set of the same source.
The subject of series [4] is human plasma protein. To be noted: plasma concentration range of 0.5-250 μg/ml; decreases with the increase of plasma concentration; cited from earlier work.

Consider `CC1(C)O[C@@H]2[C@@H](CO[C@@]3(COS(N)(=O)=O)OC(C)(C)O[C@@H]23)O1` [Topiramate, 2,3,4,5-bis-O-(1-methylethylene)-β-D-fructopyranose sulfamate], for which, in series [1], the “Stability of topiramate in pH1.2 artificial gastric fluid” value was “unstable”. For the same compound, the Plasma half-life in series [2] (human, in vivo) is 19 to 25 h. For the same compound, in series [2] (oral administration), the “Clearance for oral administration” value is 22 to 36 mL/min. In series [3] (acetone, chloroform, dimethylsulfoxide and ethanol), the “Solubility in organic solvents” value was “freely soluble”. In addition, the “Solubility in alkaline solution” value in series [3] (alkaline solution having pH of 9-10 such as sodium hydroxide or sodium phosphate solutions) is “very freely soluble”. Also, the “pH value of saturated solution” value in series [3] (saturated solution) was 6.3. Moreover, in series [3] (water, room temperature), the Solubility in water entry is on record as “about 9.8 mg/mL” and the “Solubility in water (descriptive)” value is given as “very slightly soluble”. Also, in series [4], the “Human plasma protein binding ratio” value is listed as 15-41%.
